# In patent US20240307350A1, “5-METHOXY-N,N-DIMETHYLTRYPTAMINE (5-MEO-DMT) FOR TREATING DEPRESSION” (GH RESEARCH IRELAND LIMITED, priority 2019, published 2024):
# Tested on: patients with treatment-resistant major depressive disorder
# Test: Clinical trial in treatment-resistant major depressive disorder: intensity of the psychedelic effects (MEQ30, ASC, PPEQ)
# Format: in vivo, human
# Conditions: for ASC Oceanic Boundlessness (0-2700) / MEQ30 Ineffability (0 to 5) / MEQ30 Mystical (0 to 5) / MEQ30 Positive Mood (0 to 5) / MEQ30 Total Score Average (0 to 5) / MEQ30 Transcendence Time/Space (0 to 5) / PPEQ Intensity (0-100) / PPEQ Loss of Control (0-100) / PPEQ Profoundness (0-100) / PPEQ Total Score (0-100) / PPEQ PPE achieved / MEQ30 PPE achieved / ASC PPE achieved: 12 mg inhaled; for PPEQ PPE achieved: PPEQ Total Score of at least 75; for MEQ30 PPE achieved: at least 60% of the maximum possible score in each of the four subscales; for ASC PPE achieved: at least 60% of the maximum possible score of Oceanic Boundlessness
# Text: The occurrence of a “peak psychedelic experience” in a patient can be identified through achievement of at least 60% of the maximum possible score in each of the four subscales (mystical, positive mood, transcendence of time and space, and ineffability) of the 30-item revised Mystical Experience Questionnaire (MEQ30) (as described in Barrett F S, J Psychopharmacol. 2015; 29(11):1182-90; Score items shown in Example 4).
# The occurrence of a “peak psychedelic experience” in a patient can also be identified through achievement of at least 60% of the maximum possible score of the Oceanic Boundlessness (OBN) dimension of the Altered States of Consciousness (ASC) questionnaire (as described in Roseman L et al., Front Pharmacol. 2018; 8:974).
# The occurrence of a “peak psychedelic experience” in a patient can also be identified through achievement of a score of at least 75 in the Peak Psychedelic Experience Questionnaire (PPEQ) Total Score, which averages answers scored by the patient from 0 to 100 for the following three questions: 1. How intense was the experience; 2. To what extent did you lose control; 3. How profound (i.e. deep and significant) was the experience?
# A clinical trial was performed in which 5-MeO-DMT free base (purity not less than 99%) was administered to patients with treatment-resistant major depressive disorder (TRD). The objectives of the study were to assess the safety and tolerability, the dose-related psychedelic effects and the effects on various measures of depression of single-day dosing of 5-MeO-DMT. The trial was reviewed and approved by the relevant national competent authority and local medical ethics committee. Patients recruited into the trial had to meet the Diagnostic and Statistical Manual of Mental Disorders-Fifth Edition (DSM-5) diagnostic criteria for single-episode or recurrent major depressive disorder and had to be treatment-resistant, both aspects as evaluated by a psychiatrist or registered psychologist. Patients who were using any psychoactive medication or substance (such as anti-depressive medication) had to discontinue such medication or substance and had to observe a wash-out period before the 5-MeO-DMT administration. On the administration day, a single dose of 12 mg 5-MeO-DMT was administered to the patients via a single inhalation as described in Example 1A. Patients were closely monitored for 3.5 hours after administration, with additional follow-up visits 1 day and 7 days after dosing. Various safety related measures (e.g., adverse event reporting, safety laboratory analyses, vital signs, electrocardiogram (ECG), Clinician Administered Dissociative States Scale (CADSS), Psychomotor Vigilance Test (PVT), Digit Symbol Substitution Test (DSST)), measures of the intensity of the psychedelic effects (e.g., Peak Psychedelic Experience Questionnaire (PPEQ), Altered States of Consciousness (ASC) Questionnaire, Mystical Experience Questionnaire (MEQ30), subjective description of the psychedelic experience), measures of depression severity (Montgomery-Åsberg Depression Rating Scale (MADRS), Patient's Global Impression of Severity scale (PGI-S), Patient's Global Impression of Improvement scale (PGI-I)), and additional psychological measures (e.g., Columbia-Suicide Severity Rating Scale (C-SSRS), Brief Psychiatric Rating Scale (BPRS)) were recorded at different time points. Psychological support via a psychologist and/or psychiatrist was available to the patients throughout the study, but no specific psychotherapy was applied, and no additional psychoactive medication was provided.
# The score for each individual subscale is computed by calculating the average score (from the scale of 0 to 5) for the phenomena belonging to the subscale as listed below.
# The MEQ30-total score is computed by taking the average response to all phenomena. […]
compound,measurement,setting,value
"COc1ccc2[nH]cc(CCN(C)C)c2c1 [5-MeO-DMT, 5-methoxy-N,N-dimethyltryptamine]",ASC Oceanic Boundlessness (0-2700),Patient 1,1696
same,MEQ30 Ineffability (0 to 5),Patient 1,4.7
same,MEQ30 Mystical (0 to 5),Patient 1,3.5
same,MEQ30 Positive Mood (0 to 5),Patient 1,4.5
same,MEQ30 Total Score Average (0 to 5),Patient 1,3.8
same,MEQ30 Transcendence Time/Space (0 to 5),Patient 1,3.7
same,PPEQ Intensity (0-100),Patient 1,94
same,PPEQ Loss of Control (0-100),Patient 1,45
same,PPEQ Profoundness (0-100),Patient 1,87
same,PPEQ Total Score (0-100),Patient 1,75.3
same,PPEQ PPE achieved,Patient 1,Yes
same,MEQ30 PPE achieved,Patient 1,Yes
same,ASC PPE achieved,Patient 1,Yes
same,ASC Oceanic Boundlessness (0-2700),Patient 2,1297
same,MEQ30 Ineffability (0 to 5),Patient 2,3.3
same,MEQ30 Mystical (0 to 5),Patient 2,3.1
same,MEQ30 Positive Mood (0 to 5),Patient 2,4.0
same,MEQ30 Total Score Average (0 to 5),Patient 2,3.4
same,MEQ30 Transcendence Time/Space (0 to 5),Patient 2,3.5
same,PPEQ Intensity (0-100),Patient 2,100
same,PPEQ Loss of Control (0-100),Patient 2,58
same,PPEQ Profoundness (0-100),Patient 2,80
same,PPEQ Total Score (0-100),Patient 2,79.3
same,PPEQ PPE achieved,Patient 2,Yes
same,MEQ30 PPE achieved,Patient 2,Yes
same,ASC PPE achieved,Patient 2,No
same,duration of the psychedelic experience as judged by an external observer,"patient 1, single dose of 12 mg via inhalation",16 min
same,duration of the psychedelic experience as judged by an external observer,"patient 2, single dose of 12 mg via inhalation",40 min
same,first psychedelic symptoms after the inhalation (onset),"single dose of 12 mg via inhalation, both patients",within a few seconds
